The source made the active and inactive calls.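 Rule for the calls: active = a tumor-causing dose value with its tumor site reported for any sex and species group of a rodent or other animal cancer study; inconclusive = only studies judged inadequate by the national testing program; inactive = tested in at least one study, none positive.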 Numbered stars: 1 amine (or outer) side, 2 acyl side, 3 side chain; on linkers, the order of the positions; unused ones are H or OH. Bridge positions count the residues as written; N and C are the ends. Square brackets hold non-standard residues; d marks the D form. Peptide text beside a SMILES is read from it. I, II: the chains in the order shown. Actinocin(9to1) = Cc1c2oc3c(C)ccc(C(=O)[*:1])c3nc-2c(C(=O)[*:2])c(N)c1=O; NMeV = CN[C@H](C(=O)O)C(C)C; Sar = CNCC(=O)O
Assay: DSSTox (CPDBAS) Carcinogenic Potency Database Summary SingleCellCall Results
Conditions: animal chronic carcinogenicity bioassays, CPDB summary call
Summary of the method: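 Literature-derived summary: each substance receives an overall carcinogenic/non-carcinogenic category drawn from long-term bioassays in rats, mice, hamsters, dogs or primates, using the most positive sex-species experiment and minimal evidence criteria.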

Compound	outcome
O=NN(CCCl)C(=O)N[C@@H]1[C@@H](O)[C@H](O)[C@@H](CO)O[C@@H]1O	active
NC(=O)N(CCCO)N=O	active; inactive
CCOc1ccc(NC(C)=O)cc1	active; inactive
CCCCN(CCCC)C(=S)[S-].CCCCN(CCCC)C(=S)[S-].[Ni+2]	inactive; active
Cc1nc(N)cc2[nH]c3ccccc3c12	active
CC(=O)CN(N=O)C(=O)NCCCl	active
CCOC(=O)[C@]1(c2ccccc2)CCC=C[C@H]1N(C)C	inactive
Oc1ccc(Cl)cc1Cl	inactive
Cc1ccc(N)cc1	active
O=C1O[C@H]([C@@H](O)CO)C(O)=C1O	inactive
N#[N+]c1cc(CCN)ccc1[O-]	active
CC(=O)OC/C=C(C)/C=C/C=C(C)/C=C/C1=C(C)CCCC1(C)C	active; inactive
CN(C)c1ccc(Cc2ccc(N(C)C)cc2)cc1	active
CC(C)(C)c1cc(CO)cc(C(C)(C)C)c1O	inactive
CCCCNC(=O)N(CCCC)N=O	active
O=C1OC(=O)c2ccccc21	inactive
OB(O)O	inactive; active
CCCCN(CC)C(=O)SCCC	inactive
CCNN	active
C=CCOc1ccc(CC(=O)O)cc1Cl	inactive
CC(Cl)CCl (centres undefined)	active; inactive
N#CSCc1ccccc1	inactive
O=C1C2CC=CCC2C(=O)N1SC(Cl)(Cl)Cl (centres undefined)	active
c1ccc2[nH]ccc2c1	inactive
NC(=O)N(CCO)N=O	active; inactive

Compound	outcome
C=CC(=O)c1ccc2c(c1)OCO2	inactive
NC(Cc1ccc(O)c(O)c1)C(=O)O (centres undefined)	inactive
CCCC[C@H](C)[C@@H](OC(=O)C[C@H](CC(=O)O)C(=O)O)[C@@H](C[C@H](C)C[C@@H](O)CCCC[C@@H](O)C[C@H](O)[C@H](C)N)OC(=O)C[C@H](CC(=O)O)C(=O)O	active; inactive
C#C[C@@]1(O)CC[C@H]2[C@@H]3CCC4=CCCC[C@@H]4[C@H]3CC[C@@]21C	active
CCCCCCN(N=O)C(N)=O	active; inactive
COc1ccc2c3c1O[C@H]1[C@@H](O)C=C[C@H]4[C@@H](C2)N(C)CC[C@@]341	inactive
CC(C)CN(N=O)C(N)=O	active
CN(N=O)c1ccccn1	active
CCCCC(CC)COC(=O)c1ccccc1C(=O)OCC(CC)CCCC (centres undefined)	active
Nc1ccc(Oc2ccc(N)cc2)cc1	active
FC(F)OC(Cl)C(F)(F)F (centres undefined)	inactive
OCN(CO)c1nc(N(CO)CO)nc(N(CO)CO)n1	active
CN(C)CCN(Cc1cccs1)c1ccccn1	active
CN(N=O)c1ncnc2nc[nH]c12	active
OCCN(CCO)c1nc(-c2cccs2)nc2ccccc12	inactive
ClCOCCCCOCCl	inactive
C=C(C)C(=O)OC	inactive; active
C/C=C/c1ccc(OC)cc1	inactive
O=S(=O)([O-])[O-].[O]=[V+2]	inactive
ClCCl	active
O=Cc1ccccc1	active
Cc1c(N(C)CS(=O)(=O)O)c(=O)n(-c2ccccc2)n1C	active
CCCc1cc(=O)[nH]c(=S)[nH]1	active
C1CCC(C(CC2CCCCN2)C2CCCCC2)CC1 (centres undefined)	inactive
CCN(CC)C(=O)Nc1ccc(OCC(O)CNC(C)(C)C)c(C(C)=O)c1 (centres undefined)	inactive; active

Compound	outcome
CN1C(=O)C[C@@H](C(=O)N[C@@H](Cc2cnc[nH]2)C(=O)N2CCC[C@H]2C(N)=O)NC1=O	inactive; active
CCCN(CCC)c1ccc(N=Nc2cc[n+]([O-])cc2)cc1	inactive
CSCCC(N)C(=O)O (centres undefined)	inactive
O=C1C(Cl)=C(Cl)C(=O)c2ccccc21	inactive
CNCCC(Oc1ccc(C(F)(F)F)cc1)c1ccccc1 (centres undefined)	inactive; active
CCCCCN(CCCCC)N=O	active; inactive
Oc1ccc(OCc2ccccc2)cc1	inactive; active
CCCCCCCC/C=C\CCCCCCCC(=O)O	inactive
CC(C)C(C(=O)OC(C#N)c1cccc(Oc2ccccc2)c1)c1ccc(Cl)cc1 (centres undefined)	inactive
CCOCCc1c(-c2ccccc2)nc(N)n2ncnc12	active; inactive
CCCl	active; inactive
CCNc1nc(Cl)nc(NC(C)(C)C#N)n1	active
COc1cc(O)c2c(=O)c3c(OC)cc4c(c3oc2c1OC)C1C=COC1O4 (centres undefined)	active
CCCC(Cl)CCC(Cl)CCC(Cl)CCC(Cl)CCC(Cl)CCC(Cl)CCC(C)Cl (centres undefined)	active
CCCC/C=N/N(C)C=O	active
CN(C)N=O	active
CCCCCCCCCC[N+](C)(C)[O-]	inactive
CC1=CC(=C(c2ccc(N)cc2)c2ccc(N)cc2)C=CC1=N	inactive
CN(C)CCOC(C)(c1ccccc1)c1ccccn1 (centres undefined)	active; inactive
O=C(O)CN(CC(=O)O)CC(=O)O	active
O=C(O)c1ccc(O)c(O)c1	inactive
C=C1C[C@]23C[C@@]1(O)CC[C@H]2[C@@]12C=C[C@H](O)[C@@](C)(C(=O)O1)[C@H]2[C@@H]3C(=O)O	inactive
C1CNCCN1	inactive
CC(=O)Nc1nnc(-c2ccc([N+](=O)[O-])o2)s1	active
O=[N+]([O-])OCC(CO[N+](=O)[O-])O[N+](=O)[O-]	active

Compound	outcome
[K+]	active; inactive
Nc1ccc([N+](=O)[O-])cc1O	active
Cc1ccc(S(=O)(=O)OCCN(C)N=O)cc1	active
CN(N=O)C(=O)NCCC[C@H](N)C(=O)O	active
CC(O)CN(C)N=O (centres undefined)	active
CCNC(=O)N(CCO)N=O	active
c1ccc2c(c1)ccc1cc3c(ccc4ccccc43)cc12	active
CCCNC(=O)NS(=O)(=O)c1ccc(Cl)cc1	inactive
N[C@@H](Cc1cnc[nH]1)C(=O)O	inactive
CCC1(CCC(C)C)C(=O)NC(=O)NC1=O	inactive
Cc1ccccc1	active
CCCN(N)C=O	active
O=S(O)S(=O)(=O)O	inactive
[O-][Cl+]O	inactive; active
C=CC#N	active
CC1=C(CC(=O)O)c2cc(F)ccc2/C1=C\c1ccc(S(C)(=O)=O)cc1	inactive
CC(=O)NNc1ccccc1	active
OCC(CO)N[C@H]1C[C@](O)(CO)[C@@H](O)[C@H](O)[C@H]1O	inactive
CC1(C)[C@@H](OC2O[C@H](C(=O)O)[C@@H](O)[C@H](O)[C@H]2O[C@H]2O[C@H](C(=O)O)[C@@H](O)[C@H](O)[C@H]2O)CC[C@]2(C)[C@H]3C(=O)C=C4[C@@H]5C[C@@](C)(C(=O)O)CC[C@]5(C)CC[C@@]4(C)[C@]3(C)CC[C@@H]12 (some centres undefined)	inactive
Cc1cc2c(nc1N)[nH]c1ccccc12	active
COC(=O)[C@H]1[C@H]2C[C@@H]3c4[nH]c5ccccc5c4CCN3C[C@H]2C[C@@H](OC(=O)c2cc(OC)c(OC)c(OC)c2)[C@@H]1OC	inactive
N	inactive
CN(N=O)C(=O)c1c(N(C)N=O)ncn1C	active
ClC1=C(Cl)C2(Cl)C3C(Cl)C=CC3C1(Cl)C2(Cl)Cl (centres undefined)	active
O=NN1C[C@H](O)C[C@H]1C(=O)O	inactive

Compound	outcome
O=NN1CCCCCC1	active
CN(C)c1ccc(C(=O)c2ccc(N(C)C)cc2)cc1	active
ClC1=C(Cl)C2(Cl)C3C(Cl)OC(Cl)C3C1(Cl)C2(Cl)Cl (centres undefined)	inactive
Nc1ccc(N(CCO)CCO)cc1	inactive
CNCc1ccc(CSCCNC(=NCC(O)c2ccc(O)cc2)NS(C)(=O)=O)o1 (centres undefined)	active; inactive
NC(=O)c1ccncc1	inactive
C=C1C/C(=C/C)C(=O)O[C@@H]2CCN3CC=C(COC(=O)[C@@]1(O)CO)[C@H]23	active; inactive
CCOc1ccc2c(c1)C(C)=CC(C)(C)N2	inactive; active
CN1C(=O)OC(C)(C)C1=O	inactive
Cc1c2oc3c(C)ccc(C(=O)N[C@@H]4C(=O)N[C@H](C(C)C)C(=O)N5CCC[C@H]5C(=O)N(C)CC(=O)N(C)[C@@H](C(C)C)C(=O)O[C@@H]4C)c3nc-2c(C(=O)N[C@@H]2C(=O)N[C@H](C(C)C)C(=O)N3CCC[C@H]3C(=O)N(C)CC(=O)N(C)[C@@H](C(C)C)C(=O)O[C@@H]2C)c(N)c1=O (I: T[dV]P[Sar][NMeV] / II: T[dV]P[Sar][NMeV]; ester I:1-I:C, II:1-II:C; linker I:N-II:N via Actinocin(9to1))	active; inactive
CN(N=O)C(=O)c1ccccc1C(=O)N(C)N=O	inactive
Brc1cc(-c2ccc(Br)c(Br)c2Br)cc(Br)c1Br	inactive; active
CC(=O)[O][Sn]([c]1ccccc1)([c]1ccccc1)[c]1ccccc1	inactive; active
O=NN1CCCCC1c1cccnc1 (centres undefined)	active
CC1=CC(C)(C)N(N=O)c2ccccc21	active
CCOC(=O)CC(SP(=O)(OC)OC)C(=O)OCC (centres undefined)	inactive
Cc1ccc(Cl)cc1N	active
NC(=S)NNS(=O)(=O)c1ccccc1	inactive
C#C[C@]1(O)CC[C@H]2[C@@H]3CCc4cc(O)ccc4[C@H]3CC[C@@]21C	active; inactive
CCN(N=O)C(=O)NCC(C)=O	active
CC1CN(N=O)CC(C)N1C (centres undefined)	active
CNC[C@H](O)c1cccc(O)c1	inactive
CC(C)(C)c1cc(C(C)(C)C)c(O)c(C(C)(C)C)c1	inactive
CC(=O)Nc1ccc(-c2ccccc2)cc1O	inactive; active
